Source: EPA's ToxRefDB 2

Legend:
[1] = system: rat; settings: Prenatal developmental toxicity study, sprague dawley, Inhalation, Whole-Body, dose end: 20 GD
[2] = system: rat; settings: Subchronic oral toxicity in rodents; wistar; Inhalation; Whole-Body; dose end: 90 day; group: systemic; systemic / clinical chemistry / alkaline phosphatase (alp/alk) / alkaline phosphatase (alp/alk) + systemic / clinical chemistry / lactic …
[3] = system: mouse; settings: Combined chronic toxicity/carcinogenicity, cd1, Oral, Feed, dose end: 104 week, group: systemic
[4] = system: dog; settings: Subchronic oral toxicity in nonrodent, beagle, Capsule, dose end: 26 week, group: systemic
[5] = system: rat; settings: Multigenerational reproductive toxicity study, wistar, Oral, Feed, dose end: 3 generation
[6] = system: rat; settings: Combined chronic toxicity/carcinogenicity; sprague dawley; Oral; Feed; dose end: 2 year; group: systemic; systemic / in life observation / body weight / body weight + systemic / in life observation / food consumption / food consumption
[7] = system: rat; settings: Subchronic oral toxicity in rodents, wistar, [Not Specified], dose end: 13 week, group: systemic
[8] = system: rat; settings: Prenatal developmental toxicity study, sprague dawley, Oral, Gavage/Intubation, dose end: 19 GD
[9] = system: rat; settings: Subchronic oral toxicity in rodents, other, Feed, dose end: 13 week, group: systemic
[10] = system: rat; settings: Combined chronic toxicity/carcinogenicity; sprague dawley; Oral; Feed; dose end: 24 month; group: systemic; systemic / in life observation / body weight / body weight gain
[11] = system: dog; settings: Subchronic oral toxicity in nonrodent, beagle, Feed, dose end: 26 week, group: systemic
[12] = system: mouse; settings: Carcinogenicity, cd1, Oral, Feed, dose end: 24 month, group: systemic
[13] = system: rat; settings: Subchronic oral toxicity in rodents, sprague dawley, Feed, dose end: 90 day
[14] = system: mouse; settings: Carcinogenicity; cd1; Oral; Feed; dose end: 18 month; group: systemic; systemic / in life observation / body weight / body weight + systemic / in life observation / mortality / mortality
[15] = system: dog; settings: Chronic toxicity, beagle, Oral, Feed, dose end: 52 week
[16] = system: rat; settings: Prenatal developmental toxicity study, other, Oral, Gavage/Intubation, dose end: 16 GD
[17] = system: rat; settings: Multigenerational reproductive toxicity study, sprague dawley, Oral, Feed, dose end: 2 generation
[18] = group: developmental, systemic / in life observation / body weight / fetal weight
[19] = group: maternal, systemic / in life observation / body weight / body weight gain + systemic / in life observation / food consumption / food consumption
[20] = systemic / in life observation / clinical signs / defecation (diarrhea)
[21] = systemic / in life observation / clinical signs / defecation (diarrhea) + systemic / in life observation / clinical signs / headflicking + …
[22] = group: offspring, systemic / in life observation / body weight / offspring (pup) weight + systemic / in life observation / body weight / offspring (pup) …
[23] = group: parental, systemic / in life observation / body weight / body weight + systemic / in life observation / body weight / body weight gain
[24] = group: reproductive, reproductive / offspring survival early / litter size / litter size + reproductive / offspring survival early / birth index / live birth …
[25] = systemic / clinical chemistry / aminopyrine-n-demethylase / aminopyrine-n-demethylase + systemic / in life observation / body weight / body …
[26] = group: developmental, developmental / developmental malformation / bone / [other] + developmental / developmental malformation / bone / unossified
[27] = group: maternal, systemic / in life observation / body weight / body weight gain + systemic / in life observation / clinical signs / nasal discharge + …
[28] = systemic / organ weight / liver / absolute + systemic / organ weight / liver / relative to body weight
[29] = systemic / in life observation / body weight / body weight + systemic / in life observation / body weight / body weight gain
[30] = systemic / in life observation / body weight / body weight + systemic / in life observation / body weight / body weight gain + systemic / …
[31] = group: cholinesterase, cholinesterase / cholinesterase / cholinesterase / brain cholinesterase (che) + cholinesterase / cholinesterase / cholinesterase / …
[32] = group: systemic, systemic / in life observation / body weight / body weight + systemic / in life observation / clinical signs / abnormal gait + systemic / in…
[33] = group: cholinesterase, cholinesterase / cholinesterase / cholinesterase / brain cholinesterase (che)
[34] = group: cholinesterase, cholinesterase / cholinesterase / cholinesterase / brain cholinesterase (che) + cholinesterase / cholinesterase / cholinesterase / plasma …
[35] = group: systemic, systemic / in life observation / body weight / body weight + systemic / in life observation / body weight / body weight gain + systemic / in…
[36] = group: systemic, systemic / in life observation / body weight / body weight gain
[37] = group: maternal, systemic / in life observation / body weight / body weight gain + systemic / in life observation / clinical signs / tremors + systemic / in …
[38] = group: offspring, systemic / in life observation / body weight / offspring (pup) weight
[39] = group: offspring, systemic / in life observation / body weight / offspring (pup) weight + developmental / offspring survival late / [other] / [other] + …
[40] = group: parental, systemic / in life observation / body weight / body weight + systemic / in life observation / body weight / body weight gain + systemic / in…

SMILES: Cc1ccc(C)c(C)c1 [1,2,4-Trimethylbenzene]
- LEL [1, 18]: 600 ppm
- LOAEL [1, 18]: > 600 ppm
- NEL [1, 18]: 300 ppm
- NOAEL [1, 18]: ≥ 600 ppm
- LEL [1, 19]: 600 ppm
- LOAEL [1, 19]: > 600 ppm
- NEL [1, 19]: 300 ppm
- NOAEL [1, 19]: ≥ 600 ppm
- LEL [2]: 25 ppm
- LOAEL [2]: > 250 ppm
- NEL [2]: < 25 ppm
- NOAEL [2]: ≥ 250 ppm

SMILES: CC1(C)C(C=C(Cl)C(F)(F)F)C1C(=O)OC(C#N)c1cccc(Oc2ccccc2)c1 (stereo not given) [Cyhalothrin]
- NEL ([3]; systemic / in life observation / body weight / body weight + systemic / in life observation / body weight / body weight gain + systemic / in…): 3 mg/kg/day
- NOAEL ([3]; systemic / in life observation / clinical signs / hunched posture + systemic / in life observation / clinical signs / piloerection): 15 mg/kg/day
- LOAEL ([3]; systemic / in life observation / clinical signs / hunched posture + systemic / in life observation / clinical signs / piloerection + …): 75 mg/kg/day
- LEL ([3]; systemic / in life observation / clinical signs / piloerection): 15 mg/kg/day
- LEL [4, 20]: 2.5 mg/kg/day
- LOAEL [4, 20]: 2.5 mg/kg/day
- NEL [4, 21]: 1 mg/kg/day
- NOAEL [4, 21]: 1 mg/kg/day
- LEL [5, 22]: 1.5 mg/kg/day
- LOAEL [5, 22]: 5 mg/kg/day
- NEL [5, 22]: 0.5 mg/kg/day
- NOAEL [5, 22]: 1.5 mg/kg/day
- LEL [5, 23]: 1.5 mg/kg/day
- LOAEL [5, 23]: 5 mg/kg/day
- NEL [5, 23]: 0.5 mg/kg/day
- NOAEL [5, 23]: 1.5 mg/kg/day
- NEL ([5]; group: reproductive, reproductive / offspring survival early / litter size / litter size): 1.5 mg/kg/day
- LEL [5, 24]: 5 mg/kg/day
- LOAEL [5, 24]: > 5 mg/kg/day
- NOAEL [5, 24]: ≥ 5 mg/kg/day
- LEL [6]: 12.5 mg/kg/day
- LOAEL [6]: 12.5 mg/kg/day
- NEL [6]: 2.5 mg/kg/day
- NOAEL [6]: 2.5 mg/kg/day
- LEL ([7]; systemic / clinical chemistry / aminopyrine-n-demethylase / aminopyrine-n-demethylase): 2.5 mg/kg/day
- NEL [7, 25]: 0.5 mg/kg/day
- NOAEL [7, 25]: 2.5 mg/kg/day
- LOAEL ([7]; systemic / in life observation / body weight / body weight gain): 12.5 mg/kg/day

SMILES: Nc1nc(N)nc(NC2CC2)n1 [Cyromazine]
- LEL [8, 26]: 600 mg/kg/day
- LOAEL [8, 26]: 600 mg/kg/day
- NEL [8, 26]: 300 mg/kg/day
- NOAEL [8, 26]: 300 mg/kg/day
- LOAEL ([8]; group: maternal, systemic / in life observation / body weight / body weight gain + systemic / in life observation / clinical signs / nasal discharge): 300 mg/kg/day
- LEL [8, 27]: 300 mg/kg/day
- NEL [8, 27]: 100 mg/kg/day
- NOAEL [8, 27]: 100 mg/kg/day
- LEL [9, 28]: 3 mg/kg/day
- LOAEL [9, 28]: 30 mg/kg/day
- NEL [9, 28]: < 3 mg/kg/day
- NOAEL ([9]; systemic / organ weight / liver / absolute + systemic / organ weight / liver / relative to body weight + systemic / clinical chemistry / …): 3 mg/kg/day
- LEL [10]: 15 mg/kg/day
- LOAEL [10]: 15 mg/kg/day
- NEL [10]: 1.5 mg/kg/day
- NOAEL [10]: 1.5 mg/kg/day
- LOAEL ([11]; systemic / in life observation / body weight / body weight + systemic / hematology / hematocrit (hct) / hematocrit (hct) + systemic / …): 75 mg/kg/day
- LEL [11, 29]: 0.75 mg/kg/day
- NEL [11, 29]: < 0.75 mg/kg/day
- NOAEL [11, 30]: 7.5 mg/kg/day
- LOAEL ([12]; systemic / in life observation / body weight / body weight): 150 mg/kg/day
- LEL [12, 29]: 150 mg/kg/day
- NEL [12, 30]: 7.5 mg/kg/day
- NOAEL [12, 30]: 7.5 mg/kg/day

SMILES: CNC(=O)ON=C(SC)C(=O)N(C)C [Oxamyl]
- LEL [13, 31]: 14.9 mg/kg/day
- LOAEL [13, 31]: 14.9 mg/kg/day
- NEL [13, 31]: 2.1 mg/kg/day
- NOAEL [13, 31]: 2.1 mg/kg/day
- LEL [13, 32]: 14.9 mg/kg/day
- LOAEL [13, 32]: 14.9 mg/kg/day
- NEL [13, 32]: 2.1 mg/kg/day
- NOAEL [13, 32]: 2.1 mg/kg/day
- LEL [14]: 7.5 mg/kg/day
- LOAEL [14]: 7.5 mg/kg/day
- NEL [14]: 3.75 mg/kg/day
- NOAEL [14]: 3.75 mg/kg/day
- LOAEL [15, 33]: 1.56 mg/kg/day
- NOAEL [15, 33]: < 1.56 mg/kg/day
- LEL [15, 34]: 1.56 mg/kg/day
- NEL [15, 34]: < 1.56 mg/kg/day
- LOAEL [15, 35]: 4.5 mg/kg/day
- NOAEL [15, 35]: 1.46 mg/kg/day
- LEL [15, 36]: 1.56 mg/kg/day
- NEL [15, 36]: < 1.56 mg/kg/day
- LEL [16, 18]: 0.5 mg/kg/day
- LOAEL [16, 18]: 0.5 mg/kg/day
- NEL [16, 18]: 0.2 mg/kg/day
- NOAEL [16, 18]: 0.2 mg/kg/day
- LEL [16, 37]: 0.8 mg/kg/day
- LOAEL [16, 37]: 0.8 mg/kg/day
- NEL [16, 37]: 0.5 mg/kg/day
- NOAEL [16, 37]: 0.5 mg/kg/day
- LEL [17, 38]: 5.2 mg/kg/day
- LOAEL [17, 38]: 5.2 mg/kg/day
- NEL [17, 39]: 1.7 mg/kg/day
- NOAEL [17, 39]: 1.7 mg/kg/day
- LEL [17, 40]: 5.2 mg/kg/day
- LOAEL [17, 40]: 5.2 mg/kg/day
- NEL [17, 40]: 1.7 mg/kg/day
- NOAEL [17, 40]: 1.7 mg/kg/day
